According to patent publication EP2157088A1, “INDICYANINE DYES AND THE DERIVATIVES THEREOF FOR ANALYSING BIOLOGICAL MICROMOLECULES” (UCHREZHDENIE ROSSIISKOI AKADEMII NAUK INSTITUT …, priority 2007, dated 2008):

Key:
Assay type in all cases: physicochemical
[1] = Absorption and fluorescence maxima of the dyes
Description: An insertion of methyl group at 5- and 7-positions of indolenyne cycle produces a bathochromic shift in the absorption and fluorescent spectra. As to the rest sulfur containing dyes, the spectral characteristics thereof appear to be in the same range (between about λmax 648 nm and λem 669 nm) (Fig. 1),

[2] = Molar extinction coefficient in methanol and PBS; design: ε·10^-5: unit not given here
Procedure: For all indodicarbocyanine dyes (I) (A1) - (A30) and (B1) - (B7) of the invention, there are determined the molar extinction coefficients in methanol and in aqueous phosphate buffered saline (PBS) (10 mM potassium phosphate buffer, sodium chloride concentration is 0.9%, pH 7.4). In methanol, indodicarbocyanine (A1, A8, A10-A12, A17, A23) has the upper-range of molar extinction coefficient (ε >[…]). In aqueous phosphate buffered saline (PBS), dyes (A10, A23, A30) have the maximal ε-value (Fig. 2).

[3] = Quantum efficiency of fluorescence, measured versus a reference dye
Procedure: For all indodicarbocyanine dyes (I) (A1) - (A30) and (B1) - (B7) of the invention, there are determined the quantum efficiency of fluorescence in methanol and in aqueous phosphate buffered saline (Table 1, Fig. 3). The measurements are performed versus dyes of formula (I) (R1= -CH3, R2= R6= -SO3^-; R3= -(CH2)5COOH, R4= -C2H5, R5= -H) whose quantum efficiency of fluorescence in PBS is 0.27 (Mader O., K. Reider, H.-J. Egelhaaaf, R, Fischer, R. Brock, Structure Properties of Pentamethine Indocyanine Dyes: Identification of New Dyes for Life Science Applications. Bioconjugate Chem, 2004, vol. 15, pp. 70-78). In methanol, dyes (A10, A22, A25, A29, A30) have the upper-range of quantum efficiency of fluorescence (Φ ∼ 0.3), but in PBS, dyes (A10, A22, A25, A29, A30) have the maximal Φ -value.

[4] = Relative efficiency of fluorescence / absolute sensitivity of label, normalized to dye A30 in PBS; settings: for Sensitivity of record 635/ 670: excitation 635 nm, record 670 nm; for Sensitivity of record 655/ 690: excitation 655 nm, record 690 nm; for Sensitivity of record max/ max: excitation and record in absorption and fluorescence maxima, ε*Φ normalized to A30 in PBS
Description: The data obtained were as follows: • on excitation and record in absorption and fluorescence maxima, the relative efficiency of fluorescence exceeds 0.80 for dyes (A10), (A22), (A23), (A25), and (A30) in methanol and for dyes (A22), (A25), and (A30) in PBS (Table 1, Fig. 4), whereas for dyes of formula (I) (R1 = -CH3, R2= R6= -SO3^-; R3= -(CH2)5COOH, R4= -C2H5; R5= -H) the values are 0.69 in methanol and 0.67 in PBS; • on excitation at wavelength 655 nm and record at 690 nm, the relative efficiency of fluorescence exceeds 0.25 for dyes (A25) and (A30) in methanol and is higher than 0.18 for dyes (A24) and (A30) in PBS (Table 1, Fig. 5), whereas for dyes of formula (I) (R1 = -CH3, R2 = R6= -SO3^-; R3= -(CH2)5COOH, R4= -C2H5; R5= -H) the values are 0.18 in methanol and 0.11 in PBS; • on excitation at wavelength 635 nm and record at 670 nm, the relative efficiency of fluorescence exceeds 0.50 for dyes (A1), (A11), (A23) in methanol and is higher than 0.45 for dyes (A22), (A25), and (A30) in PBS (Table 1, Fig. 6), whereas for dyes of formula (I) (R1= -CH3, R2= R6= -SO3^-; R3= -(CH2)5COOH, R4= -C2H5; R5= -H) the values are 0.44 in methanol and 0.38 in PBS.
Term sensitivity of fluorescent analysis is defined by the absolute sensitivity of label that may be represented as the product of molar extinction coefficient by quantum efficiency of fluorescence (ε*Φ). Thus, there are determined the absolute sensitivity of indodicarbocyanines (A1-A30, B1-B7) in appropriate absorption and fluorescence maxima in methanol and in aqueous phosphate buffered saline. The values are normalized to the maximal value obtained for dye (A30) in PBS (Table 1). In methanol, dyes (A10, A22, A23, A25, A30) have the upper-range of absolute sensitivity, but in PBS, dyes (A10, A22, A25, A29, A30) have the maximal values of sensitivity (Fig. 4).
To determine the most appropriate dyes for instrument setting, there are measured the relative efficiency of fluorescence of dyes at wavelength of excitation and record of the instrument (655 nm. / 690 nm). The maximal values appear to be specific to dyes (A25) and (A30) in methanol, and to dyes (A19, A22, A25, A29, A30) in PBS (Table 1, Fig. 5).
There are also measured the relative efficiency of fluorescence at wavelength of excitation and record of the instrument (635 nm / 670 nm). The maximal values appear to be specific to dyes (A1, A10, A11, A23) in methanol, and to dyes (A10, A22, A25, A29, A30) in PBS (Table 1, Fig. 6).

[5] = PBS (10 mM potassium phosphate buffer, 0.9% sodium chloride, pH 7.4)

| Structure (SMILES) | λmax^abs ([1]; MeOH) | λmax^em ([1]; MeOH) | λmax^abs ([1]; PBS) | λmax^em ([1]; PBS) | ε·10^-5 ([2]; MeOH) | ε·10^-5 [2, 5] | molar extinction coefficient (ε) ([2]; in methanol) | Φ (quantum efficiency of fluorescence) ([3]; MeOH) | Φ (quantum efficiency of fluorescence) ([3]; PBS) | Sensitivity of record 635/ 670 ([4]; MeOH) | Sensitivity of record 655/ 690 ([4]; MeOH) | Sensitivity of record max/ max ([4]; MeOH) | Sensitivity of record 635/ 670 ([4]; PBS) | Sensitivity of record 655/ 690 ([4]; PBS) | Sensitivity of record max/ max ([4]; PBS) |
| --- | --- | --- | --- | --- | --- | --- | --- | --- | --- | --- | --- | --- | --- | --- | --- |
| CCN1C(=CC=CC=CC2=[N+](CCCCS(=O)(=O)[O-])c3ccc(C)cc3C2(C)CCCCC(=O)O)C(C)(C)c2ccccc21 (stereo not shown) [A4, 3-(4-Carboxybutyl)-N-(4-sulfobutyl)-3,3',3',5-tetramethyl-N'-ethylin:dodicarbpcyanine] | 651 nm | 668 nm | 649 nm | 665 nm | 2.14±0.03 | 2.1 ± 0.03 |  | 0.14 | 0.10 | 0.243 | 0.143 | 0.381 | 0.162 | 0.054 | 0.255 |
| CCN1C(=CC=CC=CC2=[N+](CCCCS(=O)(=O)[O-])c3ccccc3C2(C)CCCCC(=O)O)C(C)(C)c2ccccc21 (stereo not shown) [A1, 3-(4-carboxybutyl)-N-(4-sulfobutyl)-3,3',3'-trimethyl-N'-ethylindodicarbocyanine] | 644 nm | 662 nm | 643 nm | 657 nm | 2.47±0.02 | 2.06±0.02 |  | 0.25 | 0.13 |  | 0.025 | 0.737 | 0.123 | 0.153 | 0.372 |
| CCN1C(=CC=CC=CC2=[N+](CCCCS(=O)(=O)[O-])c3ccc(C)cc3C2(C)CCCCC(=O)O)C(C)(C)c2cc(C)ccc21 (stereo not shown) [A5, 3-(4-Carboxybutyl)-3,3',3',5,5'-pentamethyl-N-(4-sulfobutyl)-N'-ethylindodicarbocyanine] | 654 nm | 674 nm | 653 nm | 670 nm | 2.05±0.02 | 1.96±0.02 |  | 0.16 | 0.09 | 0.212 | 0.229 | 0.391 | 0.136 | 0.096 | 0.238 |

The remaining lines, values ahead:

| λmax^abs ([1]; MeOH) | λmax^em ([1]; MeOH) | λmax^abs ([1]; PBS) | λmax^em ([1]; PBS) | ε·10^-5 ([2]; MeOH) | ε·10^-5 [2, 5] | molar extinction coefficient (ε) ([2]; in methanol) | Φ (quantum efficiency of fluorescence) ([3]; MeOH) | Φ (quantum efficiency of fluorescence) ([3]; PBS) | Sensitivity of record 635/ 670 ([4]; MeOH) | Sensitivity of record 655/ 690 ([4]; MeOH) | Sensitivity of record max/ max ([4]; MeOH) | Sensitivity of record 635/ 670 ([4]; PBS) | Sensitivity of record 655/ 690 ([4]; PBS) | Sensitivity of record max/ max ([4]; PBS) | Structure (SMILES) |
| --- | --- | --- | --- | --- | --- | --- | --- | --- | --- | --- | --- | --- | --- | --- | --- |
| 647 nm | 662 nm | 646 nm | 660 nm | 2.20±0.02 | 2.13±0.02 | > 220000 M⁻¹ cm⁻¹ | 0.26 | 0.15 | 0.493 | 0.134 | 0.730 | 0.262 | 0.054 | 0.433 | CC[N+]1=C(C=CC=CC=C2N(CCCCS(=O)(=O)[O-])c3ccccc3C2(C)C)C(C)(CCCCC(=O)O)c2ccccc21 (stereo not shown) [A8, 3-(4-carboxybutyl)-N'-(4-sulfobutyl)-3,3',3'-trimethyl-N-ethylindodicarbocyanine] |
| 647 nm | 660 nm | 646 nm | 663 nm | 1.78±0.02 | 1.80±0.03 |  | 0.23 | 0.14 | 0.359 | 0.102 | 0.514 | 0.207 | 0.049 | 0.353 | CCN1/C(=C/C=C/C=C/C2=[N+](CC)c3ccc(S(=O)(=O)[O-])cc3C2(C)C)C(C)(CCCCC(=O)O)c2ccccc21 (stereo not shown) [A7, N,N'-diethyl-3-(4-carboxybutyl)-5'-sulfo-3,3',3'-trimethylindodicarbocyanine] |
